Structures can show the parent of a compound that is named as a salt.
Columns and labels:
[1] = test system: passive cutaneous anaphylaxis (P.C.A.) reaction; assay: Antagonism to passive cutaneous anaphylaxis (P.C.A.) in rat; format: in vivo, rat (male Sprague-Dawley-JCL); conditions: for ED50: Rattus norvegicus
Description: (1) Preparation of antiserum
(a) Rat reaginic antiserum against egg albumin
One mg of egg albumin emulsified in 0.5 ml of B. pertussisdiphtheria mixed vaccine (Tanabe Seiyaku Company Ltd.) and 0.5 ml of Freund's incomplete adjuvant (Difco) was used as the antigen. The emulsion was given subcutaneously in a single dose of 1 ml divided equally (0.25 ml) to the four foot pads of male Sprague-Dawley JCL strain rats aged 6 weeks, each weighing 170-220 g. Blood samples were collected from the femoral artery 12 days after injection, and centifuged at 3000 r.p.m. at 4° C. for 15 minutes. The antisera thus obtained were stored at -20° C.
(2) antagonism to passive cutaneous anaphylaxis (P.C.A.) in rat
Ten male Sprague-Dawley-JCL strain rats, weighing 290-310 g, were used for each dose. The rat reaginic antiserum against egg albumin was used at a dilution 1:4. The animals were sensitized with 0.1 ml of the antiserum injected intracutaneously on the depilated backs of the rats. Fortyeight hours after the injection of the antiserum, 1 ml of mixture of egg albumin 5 mg and Evans' blue 5 mg in physiological saline 1 ml was injected intravenously. Thirty minutes after the injection of the antigen, animals were sacrificed and the skin was removed. To each sensitized area of the skin was added 10 ml of a 4:1 mixture of acetone and 2% solution of RBS-25 (Marumoto Industrial Co., Ltd.) to extract the dye and the mixture was allowed to stand for 16 hours, during of which the mixture was twice shaken for 30 minutes at 5th hour and 16th hour. It was further centrifuged at 2,000 r.p.m. for 15 minutes and the quantity of the dye in the supernatant solution was determined by colorimetry at […]. Each test compound was given orally 2 hours and intravenously 5 minutes before administration of the antigen. The inhibitory effect of each test compound was determined from the dye amounts measured in comparison with the control group and the treated group and the ED50 value was calculated according to Litchfield-Wilcoxon method.

[2] = test system: passive cutaneous anaphylaxis (P.C.A.) reaction; assay: Antagonism to passive cutaneous anaphylaxis (P.C.A.) in guinea-pig; format: in vivo, guinea-pig (male Hartley); conditions: for ED50: Cavia porcellus
Description: (b) Guinea-pig antiserum against egg albumin
Five mg of egg albumin emulsified in 0.5 ml of physiological saline and 0.5 ml of Freund's incomplete adjuvant was used as the antigen.
The amulsion was given subcutaneously in a single dose of 1 ml divided equally (0.25 ml) to the four foot pads of male Hartley strain guinea pigs, each weighing 250 to 300 g. Starting two weeks after dosing with the aforementioned emulsion, 0.1% egg albumin emulsified in physiological saline was given subcutaneously in equally divided (0.1 ml) doses of 0.4 ml once a week for 4 weeks to four sites on the backs of the test animals. Blood samples were collected from the carotid artery one week after the last injection, and centrifuged at 3000 r.p.m. at room temperature for 15 minutes. The antisera thus obtained were stored at -20° C.
(3) Antagonism to passive cutaneous anaphylaxis (P.C.A) in guinea-pig
Ten male Hartley strain guinea-pigs, weighing 300-350 g, were used for each dose. The animals were sensitized with 0.1 ml of the guinea-pig antiserum against egg albumin injected intracutaneously on the depilated backs of the animals. Four hours after injection of the antiserum, 1 ml of mixture of egg albumin […] and Evan's blue […] in physiological saline was injected intravenously. Thirty minutes after the injection of the antigen, the animals were sacrificed and the skin was removed. Each test compound was given orally 2 hours and intravenously 5 minutes before administration of the antigen. Each sensitized area of the skin was treated substantially in the same manner as that of the above mentioned test (2) to calculate ED50 value.

anaphylactic asthma = assay: Antagonism to anaphylactic asthma in guinea-pigs; format: in vivo, guinea-pig (male Hartley); conditions: for Inhibitory effect of anaphylactic asthma in guinea-pig: survival more than 2 hours after antigen spray
[3] = test system: Bradykinin-induced bronchoconstruction; assay: Antagonism to Bradykinin-induced bronchoconstruction in guinea-pigs; format: in vivo, guinea-pig (male Hartley); conditions: for Inhibitory effect of Bradykinin-induced bronchoconstruction in guinea-pig: 30 seconds before Bradykinin; for ED50: Cavia porcellus, iv, 30 seconds before Bradykinin 16 mg/kg i.v., Litchfield-Wilcoxon
Description: (5) Antagonism to Bradykinin-induced bronchoconstruction in guinea-pigs
Ten male Hartley strain guinea-pigs were used for each dose. The animals were immobilized with an intraperitoneal dose of 100 mg/kg of gallamine. The trachea was cannulated and the lungs were dilated with air by a respiration pump at the rate of 3 ml/time and 60.2 times/minute. Bradykinin 16 mg/kg was given intravenously and bronchoconstruction induced thereby was measured by Tanbule Strain gauge according to Konzett-Rossler method. The inhibitory effect against bronchoconstruction was determined in comparison with the control group and the treated group, and the ED50 value was measured according to Litchfield-Wilcoxon method. Each test compound was given intravenously 30 seconds before administration of the Bradykinin.

Acute toxicity in mouse = conditions: in vivo, 7 days
Description: (§1) (6) Acute toxicity in mouse and rat
(§2) Each ten male and female ICR-JCL strain mice and Sprague-Dawley-JCL strain rats were used for each dose.
(§3) Each test compound was given to animals in a form of suspension in 0.5% methyl cellose intraperitoneally, subcutaneously and orally. After administration, the incidence of the death was recorded for successive seven days. LD50 values were calculated by the method of Litchfield-Wilcoxon method.

Acute toxicity in rat = conditions: in vivo, 7 days
Description: as §1, §2, §3

[4] = iv, 5 min, i.v., 5 minutes before antigen, Litchfield-Wilcoxon
[5] = i.v., 4 mg/kg, 5 minutes before antigen
[6] = i.v., 16 mg/kg, 5 minutes before antigen
[7] = i.v., 64 mg/kg, 5 minutes before antigen
[8] = p.o., 32 mg/kg, 2 hours before antigen
[9] = p.o., 125 mg/kg, 2 hours before antigen
[10] = p.o., 500 mg/kg, 2 hours before antigen
[11] = iv, 5 min, i.v., 5 minutes before antigen

Structure (SMILES) | ED50 [1, 4] | Inhibitory effect of P.C.A. reaction in rat [1, 5] | Inhibitory effect of P.C.A. reaction in rat [1, 6] | Inhibitory effect of P.C.A. reaction in rat [1, 7] | Inhibitory effect of P.C.A. reaction in rat [1, 8] | Inhibitory effect of P.C.A. reaction in rat [1, 10] | ED50 [2, 11] | ED50 ([2]; po, 2 hours before antigen) | Inhibitory effect of P.C.A. reaction in guinea-pig [2, 5] | Inhibitory effect of P.C.A. reaction in guinea-pig [2, 6] | Inhibitory effect of P.C.A. reaction in guinea-pig [2, 7] | Inhibitory effect of P.C.A. reaction in guinea-pig [2, 8] | Inhibitory effect of P.C.A. reaction in guinea-pig [2, 9] | Inhibitory effect of P.C.A. reaction in guinea-pig [2, 10] | Inhibitory effect of Bradykinin-induced bronchoconstruction in guinea-pig ([3]; 1 mg/kg i.v.) | Inhibitory effect of Bradykinin-induced bronchoconstruction in guinea-pig ([3]; 4 mg/kg i.v.) | ED50 [3] | LD50 at 168 h (Acute toxicity in mouse; po, female) | LD50 at 168 h (Acute toxicity in mouse; po, male) | LD50 at 168 h (Acute toxicity in rat; po, female) | also measured
O=C(Cn1c(=O)sc2ccc(Cl)cc21)N1CCC(O)CC1 [Compound A, 3-(4-hydroxypiperidino)carbonylmethyl-5-chloro-2-benzothiazolinone] | 56.6 mg/kg | 22.6% | 41.5% | 49.1% | 20.8% | 62.3% | 29.1 mg/kg | 202 mg/kg | 15.5% | 32.9% | 68.9% | 33.5% | 31.7% | 67.4% | 89% | 91% | 0.278 mg/kg | > 8000 mg/kg | > 8000 mg/kg | > 8000 mg/kg | ED50 ([1]; po, 2 hours before antigen, Litchfield-Wilcoxon): 348 mg/kg; Inhibitory effect of P.C.A. reaction in rat [1, 9]: 20.8%; Inhibitory effect of anaphylactic asthma in guinea-pig (anaphylactic asthma; 4 mg/kg i.v.): 0%; Inhibitory effect of anaphylactic asthma in guinea-pig (anaphylactic asthma; 16 mg/kg i.v.): 90%; Inhibitory effect of anaphylactic asthma in guinea-pig (anaphylactic asthma; 64 mg/kg i.v.): 100%; ED50 (anaphylactic asthma; Cavia porcellus, iv, 2 h, i.v., anaphylactic asthma, Litchfield-Wilcoxon, read-out: ED50 (dose required for 50% protection from death)): ~8.5 mg/kg; Inhibitory effect of Bradykinin-induced bronchoconstruction in guinea-pig ([3]; 0.064 mg/kg i.v.): 12%; Inhibitory effect of Bradykinin-induced bronchoconstruction in guinea-pig ([3]; 0.25 mg/kg i.v.): 50%; LD50 at 168 h (Acute toxicity in mouse; ip, female): > 8000 mg/kg; LD50 at 168 h (Acute toxicity in mouse; ip, male): > 8000 mg/kg; LD50 at 168 h (Acute toxicity in mouse; sc, female): > 8000 mg/kg; LD50 at 168 h (Acute toxicity in mouse; sc, male): > 8000 mg/kg; LD50 at 168 h (Acute toxicity in rat; ip, female): 5800 mg/kg; LD50 at 168 h (Acute toxicity in rat; ip, male): 7110 mg/kg; LD50 at 168 h (Acute toxicity in rat; po, male): > 8000 mg/kg; LD50 at 168 h (Acute toxicity in rat; sc, female): > 8000 mg/kg; LD50 at 168 h (Acute toxicity in rat; sc, male): > 8000 mg/kg
O=C(O)c1cc(=O)c2c(OCC(O)COc3cccc4oc(C(=O)O)cc(=O)c34)cccc2o1 [Compound C, disodium chromoglycate] | 73.2 mg/kg | 24.1% | 55.6% | 41.4% | -16.1% | 9.4% | – | – | 11.4% | 18.4% | -2.2% | -25.4% | 24.6% | – | 12% | 28% | > 16 mg/kg | > 11000 mg/kg | > 11000 mg/kg | > 11000 mg/kg | ED50 (P.C.A. reaction in rat) ([1]; p.o., 2 hours before antigen, Litchfield-Wilcoxon): No effect; Inhibitory effect of anaphylactic asthma in guinea-pig (anaphylactic asthma; 4 mg/kg i.v.): 0%; Inhibitory effect of anaphylactic asthma in guinea-pig (anaphylactic asthma; 16 mg/kg i.v.): 0%; Inhibitory effect of anaphylactic asthma in guinea-pig (anaphylactic asthma; 64 mg/kg i.v.): 10%; ED50 (dose required for 50% protection from death) (anaphylactic asthma; i.v., anaphylactic asthma, Litchfield-Wilcoxon): No effect; Inhibitory effect of Bradykinin-induced bronchoconstruction in guinea-pig ([3]; 16 mg/kg i.v.): 24%; LD50 at 168 h (Acute toxicity in rat; po, male): > 11000 mg/kg
O=C(Cn1c(=O)sc2ccc(Cl)cc21)N1CCN(CCO)CC1 [Compound D, 3-[4-(2-hydroxyethyl)-1-piperazinylcarbonylmethyl]-5-chloro-2-benzothiazolinone hydrochloride] | – | – | – | – | – | – | 46.8 mg/kg | 594 mg/kg | 7.4% | 19.4% | 60.6% | -8.2% | 6.1% | 43.4% | 44% | 94% | 0.813 mg/kg | 622 mg/kg | 564 mg/kg | 3800 mg/kg | Inhibitory effect of Bradykinin-induced bronchoconstruction in guinea-pig ([3]; 0.064 mg/kg i.v.): -14%; Inhibitory effect of Bradykinin-induced bronchoconstruction in guinea-pig ([3]; 0.25 mg/kg i.v.): 27%; Inhibitory effect of Bradykinin-induced bronchoconstruction in guinea-pig ([3]; 16 mg/kg i.v.): 99%
